Measured values published in ChEMBL document CHEMBL3797191, “Isocoumarins, miraculous natural products blessed with diverse pharmacological activities” (Eur J Med Chem, 2016).
In brackets after ≈: the same amount, converted by molar mass.

Experiments:
Echinochloa frumentacea = assay: Growth inhibition of Barnyard millet seeds at 50 uM after 5 days relative to control; assay type: functional; details: 120 h, read-out: GI
SH-SY5Y = assay: Cytotoxicity against human SH-SY5Y cells assessed as reduction in cell viability after 48 hrs by MTT assay; assay type: functional, cell-based
Tobacco mosaic virus [1] = assay: Antiviral activity against TMV infected in Nicotiana glutinosa leaves assessed as inhibition of lesions at 20 uM pretreated for 30 mins followed by viral infection measured after 3 to 4 days by half-leaf method relative to control; assay type: functional
A549 [2] = assay: Cytotoxicity against human A549 cells assessed as reduction in cell viability after 48 hrs by MTT assay; assay type: functional, cell-based; details: A549, 48 h
MCF7 [3] = assay: Cytotoxicity against human MCF7 cells assessed as reduction in cell viability after 48 hrs by MTT assay; assay type: functional, cell-based; details: MCF7, 48 h
[4] = Cytotoxicity against human PC3 cells assessed as reduction in cell viability after 48 hrs by MTT assay; assay type: functional, cell-based; details: PC-3, 48 h
[5] = Cytotoxicity against human NB4 cells assessed as reduction in cell viability after 48 hrs by MTT assay; assay type: functional, cell-based; details: NB-4, 48 h
Kallikrein-5 = molecular target: T1, Kallikrein-5 (Homo sapiens, UniProt Q9Y337); assay: Competitive inhibition of human kallikrein-5
T1 sequence (Q9Y337 whole entry): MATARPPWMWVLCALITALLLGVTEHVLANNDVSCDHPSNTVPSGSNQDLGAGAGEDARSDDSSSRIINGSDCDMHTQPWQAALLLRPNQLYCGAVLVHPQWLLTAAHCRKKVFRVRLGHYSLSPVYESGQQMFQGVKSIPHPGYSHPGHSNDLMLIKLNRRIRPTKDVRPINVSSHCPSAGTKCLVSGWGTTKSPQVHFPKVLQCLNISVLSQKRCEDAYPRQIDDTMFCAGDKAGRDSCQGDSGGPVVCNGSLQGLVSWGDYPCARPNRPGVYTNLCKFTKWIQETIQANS

Kallikrein-7 = Kallikrein-7 (Homo sapiens, UniProt P49862); assay: Competitive inhibition of human kallikrein-7
Sequence of Kallikrein-7 (P49862 whole entry): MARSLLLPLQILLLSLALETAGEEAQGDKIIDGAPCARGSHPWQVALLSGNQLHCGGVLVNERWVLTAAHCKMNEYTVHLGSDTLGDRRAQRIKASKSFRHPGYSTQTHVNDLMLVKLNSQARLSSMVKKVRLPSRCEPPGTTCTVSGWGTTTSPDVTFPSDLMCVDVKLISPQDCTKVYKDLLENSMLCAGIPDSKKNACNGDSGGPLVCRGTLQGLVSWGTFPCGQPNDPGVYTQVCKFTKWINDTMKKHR

HepG2 = assay: Cytotoxicity against human HepG2 cells; assay type: functional, cell-based
MCF7 [6] = assay: Cytotoxicity against human MCF7 cells; assay type: functional, cell-based
MCF7 [7] = assay: Cytotoxicity against human MCF7 cells assessed as reduction in cell viability after 3 days by MTT assay; assay type: functional, cell-based; details: MCF7, 72 h
Tobacco mosaic virus [8] = assay: Antiviral activity against TMV assessed as inhibition of viral infection at 20 uM by half-leaf method relative to control; assay type: functional
A549 [9] = assay: Cytotoxicity against human A549 cells assessed as reduction in cell viability after 3 days by MTT assay; assay type: functional, cell-based; details: A549, 72 h
NCI-H187 [10] = assay: Cytotoxicity against human NCI-H187 cells assessed as reduction in cell viability by resazurin microplate assay; assay type: functional, cell-based
NCI-H187 [11] = assay: Cytotoxicity against human NCI-H187 cells; assay type: functional, cell-based
KB [12] = assay: Cytotoxicity against human KB cells assessed as reduction in cell viability by resazurin microplate assay; assay type: functional, cell-based
KB [13] = assay: Cytotoxicity against human KB cells; assay type: functional, cell-based
Staphylococcus aureus = assay: Antibacterial activity against Staphylococcus aureus; assay type: functional
P388 = assay: Cytotoxicity against mouse P388 cells; assay type: functional, cell-based
[14] = Therapeutic ratio of LC50 to EC50 for Balanus amphitritea; assay type: ADME; details: amphibalanus amphitrite; read-out: TI
Rattus norvegicus = assay: Anti-ulcer activity in Sprague-Dawley rat stomach assessed as protection against stress-induced gastric ulcer at 25 mg/kg, po pretreated for 30 mins followed by stress measured after 6 hrs relative to control; assay type: functional
[15] = Antioxidant activity assessed as radical scavenging activity; assay type: physicochemical
Aromatase = molecular target: T2, Aromatase (Homo sapiens, UniProt P11511); assay: Inhibition of aromatase (unknown origin)
T2 sequence (P11511 whole entry): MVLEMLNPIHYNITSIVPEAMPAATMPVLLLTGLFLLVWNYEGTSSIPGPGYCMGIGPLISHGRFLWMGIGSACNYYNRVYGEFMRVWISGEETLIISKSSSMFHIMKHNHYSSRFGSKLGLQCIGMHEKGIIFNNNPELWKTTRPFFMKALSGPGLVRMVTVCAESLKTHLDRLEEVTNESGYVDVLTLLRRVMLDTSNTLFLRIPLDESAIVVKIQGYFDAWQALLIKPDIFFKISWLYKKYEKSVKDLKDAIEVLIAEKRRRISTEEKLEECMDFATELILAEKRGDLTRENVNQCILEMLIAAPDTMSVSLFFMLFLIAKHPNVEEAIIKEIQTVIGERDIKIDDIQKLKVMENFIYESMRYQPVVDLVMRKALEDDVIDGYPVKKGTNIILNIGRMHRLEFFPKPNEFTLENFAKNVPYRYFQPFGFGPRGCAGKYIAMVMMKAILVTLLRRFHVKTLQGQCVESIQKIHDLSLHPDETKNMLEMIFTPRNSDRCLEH

## CC(C)C[C@H](NC(=O)[C@@H](O)[C@H]1O[C@](C)(O)[C@@]2(C)NC(=O)C[C@@H]1N2)[C@@H]1Cc2cccc(O)c2C(=O)O1
Echinochloa frumentacea
  inhibition of growth at 50 µM: 82%

## COc1ccc(CCCO)c2cc(CC(C)=O)oc(=O)c12
SH-SY5Y
  IC50: 2800 nM
Tobacco mosaic virus [1]
  inhibition at 20 µM: 30.6%
A549 [2]
  IC50: 2800 nM
MCF7 [3]
  IC50: 2800 nM
[4]
  IC50: 2800 nM
[5]
  IC50: 2800 nM

## COC1=C(c2c(OC)cc3c(c2O)C(=O)C2=C(C[C@H](C)OC2=O)C3=O)C(=O)c2c(O)c3c(c(O)c2C1=O)C[C@H](C)OC3=O
Kallikrein-5
  Ki: 22.9 µM
Kallikrein-7
  Ki: 12.2 µM

## Cc1c(O)cc2c(c1O)C(=O)O[C@H](C)C2
HepG2
  IC50: 6.41 µM
MCF7 [6]
  IC50: 6.67 µM

## CC(=O)Cc1cc2c(CCCO)cc(O)cc2c(=O)o1
SH-SY5Y
  IC50: 2800 nM
Tobacco mosaic virus [1]
  inhibition at 20 µM: 28.4%
A549 [2]
  IC50: 2800 nM
MCF7 [3]
  IC50: 2800 nM
[4]
  IC50: 2800 nM
[5]
  IC50: 2800 nM

## COc1cc(OC)c2c(c1CC=C(C)C)C[C@@H](C)OC2=O
MCF7 [7]
  IC50: 4 µM
Tobacco mosaic virus [8]
  inhibition at 20 µM: 28.6%
A549 [9]
  IC50: 3.8 µM

## COc1c(O)c(-c2c(O)c(OC)c(O)c3c(=O)oc(C)cc23)c2cc(C)oc(=O)c2c1O
NCI-H187 [10]
  IC50: 8.31 µg/mL (≈ 18.8 µM)
NCI-H187 [11]
  IC50: 8.31 µg/mL (≈ 18.8 µM)
KB [12]
  IC50: 24.4 µg/mL (≈ 55.2 µM)
KB [13]
  IC50: 24.4 µg/mL (≈ 55.2 µM)

## CC[C@H](N)[C@H](O)[C@H](O)CC(=O)N[C@@H](CC(C)C)[C@@H]1Cc2cccc(O)c2C(=O)O1
Staphylococcus aureus
  MIC: 12 µM (≈ 4.9 µg/mL)
P388
  IC50: 15 µM

## CC(C)C[C@H](NC(=O)C[C@@H](O)[C@H]1O[C@](C)(O)[C@H](C)NC1CC(N)=O)[C@@H]1Cc2cccc(O)c2C(=O)O1 (some centres undefined)
Echinochloa frumentacea
  inhibition of growth at 50 µM: 7%

## COc1c(O)cc2c(c1CC=C(C)C)C[C@@H](C)OC2=O
MCF7 [7]
  IC50: 4 µM
Tobacco mosaic virus [8]
  inhibition at 20 µM: 28.6%
A549 [9]
  IC50: 3.8 µM

## CCCC1Cc2cc(O)c(Br)c(O)c2C(=O)O1 (centres undefined)
P388
  IC50: 0.19 µg/mL

## COc1cc2c(OC)c3cc(C)oc(=O)c3c(O)c2c(O)c1-c1c(OC)cc2c(OC)c3cc(C)oc(=O)c3c(O)c2c1O
Kallikrein-5
  Ki: 22.9 µM

## CCCCC[C@H]1OC(=O)c2c(O)c(CC=C(C)C)cc(O)c2[C@H]1OC
[14]
  selectivity ratio: > 15

## CC(C)C[C@H](NC(=O)[C@@H](O)[C@@H](O)[C@@H](N)CC(N)=O)[C@@H]1Cc2cccc(O)c2C(=O)O1
Rattus norvegicus
  Activity: 72%

## COc1cc2c(c3c1OC(C)(C)CC3=O)C[C@@H](C)OC2=O
MCF7 [7]
  IC50: 4 µM
Tobacco mosaic virus [8]
  inhibition at 20 µM: 28.6%
A549 [9]
  IC50: 3.8 µM

## C[C@@H]1Cc2cc(O)c(C=O)c(O)c2C(=O)O1
HepG2
  IC50: 6.41 µM
MCF7 [6]
  IC50: 6.67 µM

## CC(C)C[C@H](NC(=O)[C@@H](O)[C@@H](O)[C@@H](N)CC(=O)O)[C@@H]1Cc2cccc(O)c2C(=O)O1
Rattus norvegicus
  Activity: 100%

## CC1(C)CCc2c(cc(O)c3c2CC(CO)OC3=O)O1 (centres undefined)
Tobacco mosaic virus [8]
  inhibition at 20 µM: 33.8%

## CC[C@@H]1Cc2cc(O)cc(O)c2C(=O)O1
HepG2
  IC50: 6.41 µM
MCF7 [6]
  IC50: 6.67 µM

## C/C=C/CC[C@H]1OC(=O)c2c(O)c(CC=C(C)C)cc(O)c2[C@H]1OC
[14]
  selectivity ratio: > 15

## Cc1c(O)cc2c(c1O)C(=O)O[C@H](CO)C2
HepG2
  IC50: 6.41 µM
MCF7 [6]
  IC50: 6.67 µM

## CC(C)C[C@H](NC(=O)[C@@H](O)[C@H]1OC(=O)C[C@@H]1N)[C@@H]1Cc2cccc(O)c2C(=O)O1
Rattus norvegicus
  Activity: 83%

## C[C@H](O)C/C=C/CCCCC1Cc2cc(O)cc(O)c2C(=O)O1 (some centres undefined)
[15]
  IC50: 21.7 µM
Aromatase
  IC50: 12.3 µM
